Consider two compounds from patent publication US12358948B2, “Neurotensinergic agonists and methods of using same preventing or treating pain” (priority 2019, dated 2025).

The test system of data set [1] is Sprague-Dawley rats. Put plainly: Formalin test (tonic pain model), intrathecal injection. The data set is classed as in vivo, rat. As to the method: Experiments were performed with adults male Sprague-Dawley rats, weighing 225-300 g (Charles River laboratories, St Constant, Canada). Rats were housed two per cage on Aspen shavings in a quiet room and kept on a 12 h light/dark cycle and allowed ad libitum access to food and water. The experimental procedures in this study were approved by the Animal Care Committee of Université de Sherbrooke and were in accordance with policies and directives of the Canadian Council on Animal Care.
Rats were lightly anesthetized with isoflurane/oxygen (Baxter corporation, Mississauga, ON, Canada; 2 L/min) flow and injected intrathecally at the L5-L6 intervertebral space with concentrations ranging from 10 to 150 μg/kg of compound 34, 30 μg/kg of PD149163 or 61 nmol/kg of compounds 60, 67, 91 and 116 diluted in 0.9% saline or 0.9% saline alone.
Formalin test: The analgesic effect of compound 34 was assessed using the formalin test as a model of persistent pain. Before testing, animals were acclimatized to manipulations and to plexiglass chambers 30 min/day for three consecutive days. On test day, 5 minutes after intrathecal injection of compounds at increasing doses ranging from 30 to 150 μg/kg (FIGS. 7A-B) or 3 to 60 μg/kg (FIGS. 8A-D), the rats received a 50 μl of diluted 1.85% formaldehyde (i.e. 5% formalin; Bioshop, Burlington, Ontario) into the plantar surface of the right hind paw. […] The intraplantar injection of formalin produced the biphasic nociceptive response typical of this tonic pain model (Tjolsen et al., 1992). […] Nociceptive behavior was assessed using a weighted score as described previously (Dubuisson and Dennis 1977; Codere, 1993). […] The weighted average pain intensity score ranging from 0 to 3 was then calculated by multiplying the time spent in each category by the category weight, summing these products, and dividing by the total time in a given time interval. The pain score was thus calculated from the following formula (1T1+2T2+3T3)/180 where T1, T2, and T3 are the durations (in seconds) spent in behavioral categories 1, 2, or 3, respectively, during each 180 second block. The Area Under the Curve (AUC) was calculated during all the duration of the test (0-60 min). […]
Data are expressed as mean±standard errors of the mean (SEM). […] The % MPE for the tail-flick test and the areas under the curve for the formalin test were analyzed using a one-way ANOVA followed by a Dunnett's multiple comparisons test to compare different concentrations of compounds and saline treatment (FIGS. 2B, 4B, 7A-B and 8B-D). […]

A short description of data set [2]: Blood pressure measurements after intravenous injection.
Method: Mean, systolic and diastolic arterial blood pressure and a heart rate were measured through a catheter (PE 50 filled with heparinized saline) inserted in the right carotid artery and connected to a Micro-Med transducer (model TDX-300, USA) linked to a blood pressure Micro-Med analyzer (model BPA-100c). […] Blood pressure was recorded each second for up to 1000 seconds following intravenous injection. […] Data represents the mean±SEM of 4-5 rats for each condition.
For data set [3], the system named is Sprague-Dawley rats. Put plainly: Tail-flick test (acute thermal pain), intrathecal injection. The data set is classed as in vivo, rat. The conditions noted are these: for ED50, tail-flick test: from % MPE at 10 min post-injection, rat; for tail-flick latency time compared to saline injection: i.t. 10 to 150 μg/kg (compound 34) or 3 to 61 nmol/kg (compound 67); for % MPE: 10 min post-injection. As to the method:
Rats were housed two per cage on Aspen shavings in a quiet room and kept on a 12 h light/dark cycle and allowed ad libitum access to food and water. The experimental procedures in this study were approved by the Animal Care Committee of Université de Sherbrooke and were in accordance with policies and directives of the Canadian Council on Animal Care.
Tail-flick test: The tail flick test was used as outcome measures heat-induced pain in animals and as indicators of a compound's analgesic efficacy.
Acute pain was assessed using the Tail flick test (Tail Flick Analgesia meterV2.00, Colombus Instruments, Columbus, Ohio, USA). Tail flick test measures sensitivity to a high-intensity light beam focused on the rat tail. The tail flick apparatus was set at a light intensity of 6 and a cutoff of 10 seconds. The latency to flick the tail out of the path of the light beam corresponds to the measure of pain sensitivity or analgesia.
Before testing, animals were individually acclimatized to manipulations and behavioral apparatus 5 min/day for three consecutive days. On the test day, latencies baseline measures were taken before drug injection to provide a mean baseline. The compounds were diluted in 0.9% saline at the desired dose. The effects of the compound or saline on thermal nociception were assessed every 10 min for up to 60 min following i.t. administration.
Moreover, tail flick latencies were converted into the percent maximal possible effect (% MPE) at the time of maximal peak of analgesia. % MPE were calculated according to the following formula: % MPE=[(Test latency)−(Saline latency)]/[(Cutoff)−(Saline latency)]×100. Data are expressed as mean±SEM of 5-8 animals for each dose.
Then, ED50 values were determined using the dose-response stimulation log(agonist) vs response (four parameters).
Data are expressed as mean±standard errors of the mean (SEM). All graphs and statistical analysis were performed using GraphPad Prism™ 7 (GraphPad software, La Jolla, CA, USA). […] A two-way ANOVA followed by Tukey's multiple comparisons test was used to determine the significant differences in changes in body temperature between different concentrations of compounds and saline (FIG. 9). The % MPE for the tail-flick test and the areas under the curve for the formalin test were analyzed using a one-way ANOVA followed by a Dunnett's multiple comparisons test to compare different concentrations of compounds and saline treatment (FIGS. 2B, 4B, 7A-B and 8B-D). […] Nonlinear regression using three parameters was performed for % of ileum relaxation and IC50 value was obtained from the resulting dose-response curve (FIG. 11). A difference in response was considered significant with p-values *p<0.05, **p<0.01, ***p<0.001 and **p<0.0001.
For orientation: Hot-plate and tail-flick tests time the reaction to a heat stimulus.

Values joined by “and” are separate entries in the source; they are usually repeats but may differ in a detail not shown here. Identical values can stand only once. Where a SMILES comes first, the peptide text is derived from it. Bridges are numbered along the chain shown (N, C = ends). [ ]: non-standard residue; d: D form. Ala(cPent) = N[C@@H](CC1CCCC1)C(=O)O; AllylGly = C=CC[C@H](N)C(=O)O

As for `CC(C)C[C@H](NC(=O)[C@H](Cc1ccc(O)cc1)NC(=O)[C@@H]1CC=CC[C@H](N)C(=O)N[C@@H](CCCCN)C(=O)N[C@@H](CCCCN)C(=O)N1)C(=O)O` [compound 34, c[G(All)KKG(All)]YL] (H-[AllylGly]KK[AllylGly]YL-OH; staple 1-4), the “time spent in lifting” value in the data set with Sprague-Dawley rats [1] (acute phase, from 60 μg/kg i.t.) is given as “significantly decreased”; in the data set on Sprague-Dawley rats [1] (inflammatory phase, from 90 μg/kg i.t.), “significantly decreased”. For the same compound, in data set [2] (0.01, 0.1, 1 mg/kg i.v.), the “Hypotension (i.v.)” value is “no significant hypotension”. For the same compound, the “tail-flick latency at the lowest dose” value with Sprague-Dawley rats [3] (10 μg/kg i.t. (data not shown)) is “no apparent increase in latency”. The “ED50, tail-flick test” value with Sprague-Dawley rats [3] (i.t.) was 48.52 μg/kg and 61 nmol/kg. In the data set with Sprague-Dawley rats [3], the “tail-flick latency time compared to saline injection” value is “significantly increased”. For the same compound, the “% MPE” value in the data set with Sprague-Dawley rats [3] (tail-flick, two higher doses i.t.) is given as “at least 98%”. In addition, the “dose at which analgesic effect / MPE reached a plateau” value in the data set on Sprague-Dawley rats [3] (tail-flick, i.t.) was “around 90 μg/kg”.
With `NCCCC[C@@H]1NC(=O)[C@H](CCCCN)NC(=O)[C@@H](N)CC=CC[C@@H](C(=O)N[C@@H](Cc2ccc(O)cc2)C(=O)N[C@@H](CC2CCCC2)C(=O)O)NC1=O` [compound 67, c[G(All)KKG(All)]YA(cyclopentyl)] (H-[AllylGly]KK[AllylGly]Y[Ala(cPent)]-OH; staple 1-4), the “ED50, formalin test” value in the data set on Sprague-Dawley rats [1] (AUC of pain score, acute and inflammatory phases combined, i.t.) was 30 nmol/kg. Moreover, the pain score result in the data set on Sprague-Dawley rats [1] (all tested doses (from 10 nmol/kg) i.t.) is on record as “significantly decreased”. The “Hypotension (i.v.)” value in data set [2] (1 mg/kg i.v.) is “no significant hypotension”. The “latency of the tail-flick reflex compared to baseline” value in the data set on Sprague-Dawley rats [3] (61 nmol/kg i.t.) is listed as “sustainably increased latency”. Moreover, in the data set on Sprague-Dawley rats [3] (doses inferior to 3 nmol/kg i.t. (data not shown)), the “tail-flick latency at low doses” value was “no apparent increase in latency”. In addition, in the data set on Sprague-Dawley rats [3] (equimolar doses (61 nmol/kg i.t.)), the “antinociceptive effect compared with the other tested compounds” value is “highest antinociceptive effect”. The “ED50, tail-flick test” value with Sprague-Dawley rats [3] (i.t.) is 8.14 nmol/kg. Further, the “tail-flick latency time compared to saline injection” value in the data set with Sprague-Dawley rats [3] is on record as “significantly increased”. Besides, the “MPE plateau at the tested doses” value with Sprague-Dawley rats [3] (tail-flick, 3 to 61 nmol/kg i.t.) is listed as “did not reach a plateau”. Further, in the data set on Sprague-Dawley rats [3] (tail-flick, highest dose i.t.), the “% MPE” value is “at least 91%”.
